Reference: the Biogen ADME set (Fang et al. 2023)
Values after ≈ are worked out from the molar mass of the structure shown.

Settings: for aqueous solubility: pH 6.8

| intrinsic clearance, human liver microsomes | intrinsic clearance, rat liver microsomes | MDR1-MDCK efflux ratio | aqueous solubility | fraction unbound, human plasma | fraction unbound, rat plasma | SMILES |
| --- | --- | --- | --- | --- | --- | --- |
| – | – | 0.97 | 0.5 µg/mL (≈ 1.17 µM) | – | – | Cc1oc2cc(OCC(=O)Nc3nccs3)ccc2c(=O)c1Oc1ccc(F)cc1 |
| ≤ 4.74 mL/min/kg | ≤ 10.7 mL/min/kg | 0.4 | – | – | – | O=C(O)c1csc(Cc2ccc(Cl)cc2)n1 |
| 41.7 mL/min/kg | 164 mL/min/kg | – | – | – | – | Cc1ccc(C)c(NC(=O)c2cccc(-c3ncon3)c2)c1 |
| – | – | – | 0.925 µg/mL (≈ 4.45 µM) | – | – | Brc1cnc2ccccc2c1 |
| ≤ 4.74 mL/min/kg | 17.8 mL/min/kg | 8.14 | 8.97 µg/mL (≈ 26.3 µM) | – | – | CSc1ncccc1C(=O)Nc1ccc(N2CCCCC2=O)cc1 |
| – | – | – | 0.35 µg/mL (≈ 1.09 µM) | – | – | COc1cccc2c1Oc1nc(-c3ccccc3)[nH]c(=S)c1C2 |
| – | – | 50.5 | 0.3 µg/mL (≈ 0.572 µM) | – | – | C=CC(=O)Nc1cc(-n2c(=O)ccc3cnc4ccc(-c5ccc(NS(C)(=O)=O)cc5)cc4c32)ccc1C |
| – | – | 0.459 | 0.19 µg/mL (≈ 0.549 µM) | – | – | COc1ccc(-c2cnn3c(N)c(-c4ccccc4)cnc23)cc1OC |
| ≤ 4.74 mL/min/kg | 79.8 mL/min/kg | 29.3 | – | – | – | Cc1ccc(-c2ccc(N(C)CCO)nn2)c(-n2cccn2)c1 |
| ≤ 4.74 mL/min/kg | 112 mL/min/kg | 2.83 | – | – | – | CCn1nc(CNC(=O)C2CCOCC2)c2ccccc21 |
| 32.1 mL/min/kg | 454 mL/min/kg | – | 71.7 µg/mL (≈ 166 µM) | – | – | CC(c1ccccc1)N1CC(C(=O)N2CCC(n3c(=O)[nH]c4ccccc43)CC2)CC1=O (stereo not given) |
| 114 mL/min/kg | 1110 mL/min/kg | 3.98 | – | – | – | CC(C)CCNC(=O)CSc1nc2ccccc2[nH]1 |
| – | – | 0.894 | 0.86 µg/mL (≈ 2.71 µM) | – | – | Cc1cc(NC(=O)Cn2nc(C3CC3)ccc2=O)ccc1Cl |
| ≤ 4.74 mL/min/kg | ≤ 10.7 mL/min/kg | – | – | – | – | CN(C(=O)c1cccc(C(=O)O)c1)c1ccccc1 |
| 12.8 mL/min/kg | 256 mL/min/kg | 1.15 | 39.8 µg/mL (≈ 118 µM) | – | – | CO[C@@H](C(=O)Nc1cc2c(C)cc(=O)oc2cc1C)c1ccccc1 |
| ≤ 4.74 mL/min/kg | 26.6 mL/min/kg | – | – | – | – | COc1cccc(CN2CCc3nc(-c4cnccn4)nc(O)c3C2)c1 |
| ≤ 4.74 mL/min/kg | ≤ 10.7 mL/min/kg | – | 35.3 µg/mL (≈ 173 µM) | – | – | Cc1noc(-c2ccccc2C(=O)O)n1 |

The remaining lines, values behind:

| SMILES | intrinsic clearance, human liver microsomes | intrinsic clearance, rat liver microsomes | MDR1-MDCK efflux ratio | aqueous solubility | fraction unbound, human plasma | fraction unbound, rat plasma |
| --- | --- | --- | --- | --- | --- | --- |
| COc1cccc(CN2CCc3nc(-c4cnc(C)cn4)nc(O)c3C2)c1 | ≤ 4.74 mL/min/kg | 38.2 mL/min/kg | – | – | – | – |
| C[C@@]1(c2ncncc2F)NC(=O)c2cc(-c3cn[nH]c3)ccc21 | ≤ 4.74 mL/min/kg | 34.9 mL/min/kg | 21.8 | 37.5 µg/mL (≈ 121 µM) | – | – |
| CNc1nc(Nc2cnn([C@H]3CCN(C4COC4)C[C@@H]3F)c2Cl)ncc1C(F)(F)F | 10.6 mL/min/kg | 60.9 mL/min/kg | 1.31 | – | – | – |
| CC1(C)O[C@@](C)([C@H]2CC3(CCNCC3)CO2)CC[C@@H]1O | ≤ 4.74 mL/min/kg | ≤ 10.7 mL/min/kg | 0.443 | 42.6 µg/mL (≈ 150 µM) | – | – |
| CCc1nc(CNc2ccc(C#N)nc2)cs1 | ≤ 4.74 mL/min/kg | 109 mL/min/kg | 0.556 | – | – | – |
| C#C[C@@](C)(CC)NC(=O)c1cc(F)cnc1NC1CC(F)(F)C1 | 69.6 mL/min/kg | 313 mL/min/kg | 0.802 | – | 0.0469 | 0.0708 |
| O=C(Nc1ccn(-c2ncccc2Cl)n1)c1csnn1 | – | – | – | 28.5 µg/mL (≈ 92.9 µM) | – | – |
| COc1cccc(C)c1C(=O)N[C@H](CO)CCSC | 32.5 mL/min/kg | 741 mL/min/kg | 1.7 | – | – | – |
| O=C(NN1CCOCC1)c1ccc(Cl)c(Cl)c1 | ≤ 4.74 mL/min/kg | ≤ 10.7 mL/min/kg | 0.691 | – | – | – |
| COc1ccc(C(=O)N2CCCC2)cc1NC(=O)c1cc(F)c(F)c(F)c1F | ≤ 4.74 mL/min/kg | 90.1 mL/min/kg | – | 43.9 µg/mL (≈ 111 µM) | – | – |
| CCCc1nnc(NCc2cn3ccc(C)cc3n2)o1 | ≤ 4.74 mL/min/kg | 34 mL/min/kg | 3.5 | 21.9 µg/mL (≈ 80.9 µM) | – | – |
| Cc1cc(Nc2ccc(F)cn2)cc(C2CCN(C(=O)Cn3nc(C)ccc3=O)C2)n1 (stereo not given) | 19.7 mL/min/kg | 89.9 mL/min/kg | 29.9 | – | – | – |
| Cc1cc(-c2cccc3ccnn23)nc(N2CCCC2)n1 | 122 mL/min/kg | 1600 mL/min/kg | – | – | – | – |
| COc1ccc(Cl)cc1NC(=O)CN1CCCN(c2ccc(C(F)(F)F)cn2)CC1 | 453 mL/min/kg | 1060 mL/min/kg | 1.75 | – | – | – |
| Clc1cccc(Nc2ncnc3[nH]ncc23)c1Cl | – | – | – | 3.23 µg/mL (≈ 11.5 µM) | – | – |
| CCC(=O)NCc1cc(C2CC2)n(C2CCCC2)n1 | 10.1 mL/min/kg | 218 mL/min/kg | 1.05 | 25 µg/mL (≈ 95.7 µM) | – | – |
| N=c1ccn2c(n1)O[C@@H]1[C@@H](O)[C@@H](CO)O[C@H]12 | ≤ 4.74 mL/min/kg | ≤ 10.7 mL/min/kg | – | – | – | – |
| CCc1ncnc(N(C)Cc2ccc(N)nc2)c1F | ≤ 4.74 mL/min/kg | 44.2 mL/min/kg | 0.635 | 34.9 µg/mL (≈ 134 µM) | – | – |
| C[C@H]1CC[C@H](n2c3cnccc3c3cnc(Nc4ccc5c(n4)CCN(C(=O)CO)C5)nc32)CC1 | 133 mL/min/kg | 349 mL/min/kg | 4.93 | – | – | – |
| O=C(CC[C@@H]1CCCN2CCCC[C@H]12)NCc1cnc2c(c1)CCC2 | ≤ 4.74 mL/min/kg | 286 mL/min/kg | 26.7 | – | – | – |
| NC(=O)c1cnc(NC2CC2)nc1CCNC(=O)C1(c2cccc(F)c2)CCOCC1 | 37.7 mL/min/kg | 88.6 mL/min/kg | 32.6 | 77.3 µg/mL (≈ 181 µM) | – | – |
| CC(C)CCn1ccc(NC2CCN(C(C)C)CC2)n1 | ≤ 4.74 mL/min/kg | 152 mL/min/kg | 3.58 | – | – | – |
| Cc1cccc(OC[C@@]2(O)CN(C[C@]3(O)CC[C@@H](C(C)(C)C)CC3)CC[C@@H]2O)c1 | 234 mL/min/kg | 1790 mL/min/kg | 1.33 | – | – | – |
| Cc1ccc(Cl)c(OC[C@@]2(O)CN(C3CCCC3)CC[C@@H]2O)c1 | 325 mL/min/kg | 2250 mL/min/kg | 1.03 | – | – | – |
| O=C(NC1CCCC1)N1CCN(c2nccn3nc4c(c23)CCCC4)CC1 | 118 mL/min/kg | 464 mL/min/kg | 2 | 17.1 µg/mL (≈ 46.4 µM) | – | – |
| Cc1sc2ncn(Cc3c(F)cccc3Cl)c(=O)c2c1C | 80 mL/min/kg | 757 mL/min/kg | – | – | – | – |
| O=C(Cc1csc(-c2ccccn2)n1)NC1CCCCCC1 | 87 mL/min/kg | 2280 mL/min/kg | 0.945 | 11.4 µg/mL (≈ 36.2 µM) | – | – |
